# Test results published in ChEMBL document CHEMBL4725390, “Asymmetrically Substituted Quadruplex-Binding Naphthalene Diimide Showing Potent Activity in Pancreatic Cancer Models” (ACS Med Chem Lett, 2020).
# Active and inactive are the calls of the source. No cut-off for these calls is given here.
# What was measured:
# Quadruplex DNA [1] = assay: Binding affinity to G4 quadruplex DNA in human PANC1 cells assessed as BG4 foci formation at 400 to 800 nM after 24 hrs by immunofluorescence based confocal microscopic analysis; type: cell-based; settings: PANC-1, dose nM 400-800, time 24.0 hrs
# Quadruplex DNA [2] = assay: Binding affinity to G4 quadruplex DNA in human PANC1 cells assessed as increase in number of BG4 foci at 100 nM after 24 hrs by immunofluorescence based confocal microscopic analysis; type: cell-based; settings: PANC-1
# BXPC-3 = assay: Antiproliferative activity against human BxPC3 cells assessed as growth inhibition after 96 hrs by SRB assay; type: functional
# PANC-1 = assay: Antiproliferative activity against human PANC1 cells assessed as growth inhibition after 96 hrs by SRB assay; type: functional
# [3] = Toxicity in mouse xenografted with human MIAPaCa2 cells assessed as drug tolerability at 1 mg/kg, iv administered once per week for 28 days; type: organism-based; settings: in vivo, 672 h, time 28 day
# MIA PaCa-2 [4] = assay: Antiproliferative activity against human MIAPaCa2 cells assessed as growth inhibition after 96 hrs by SRB assay; type: functional
# [5] = Half life in mouse xenografted with human MIAPaCa2 cells at 0.96 mg/kg, iv administered as single dose; type: ADME, organism-based; settings: in vivo
# [6] = Clearance in mouse xenografted with human MIAPaCa2 cells at 0.96 mg/kg, iv administered as single dose; type: ADME, organism-based; settings: in vivo
# MIA PaCa-2 [7] = assay: Antitumor activity against human MIAPaCa2 cells xenografted in mouse assessed as mean tumor volume at 1 mg/kg, iv administered once per week for 28 days and measured at day 53 by Caliper method (reference value: 1.60 +/- 0.44 cm3); type: functional; settings: time 28 day
# [8] = Downregulation of DVL1 mRNA expression in human MIAPaCa2 cells at 40 nM after 6 hrs by RNA sequencing analysis relative to control; type: functional, MIA PaCa-2
# [9] = Downregulation of AXIN1 mRNA expression in human MIAPaCa2 cells at 40 nM after 6 hrs by RNA sequencing analysis relative to control; type: functional, MIA PaCa-2
# [10] = Downregulation of APC2 mRNA expression in human MIAPaCa2 cells at 40 nM after 6 hrs by RNA sequencing analysis relative to control; type: functional, MIA PaCa-2
# [11] = Downregulation of Bcl2 mRNA expression in human MIAPaCa2 cells at 40 nM after 6 hrs by RNA sequencing analysis relative to control; type: functional, MIA PaCa-2
# [12] = Downregulation of WNT5B mRNA expression in human MIAPaCa2 cells at 40 nM after 24 hrs by RNA sequencing analysis relative to control; type: functional, MIA PaCa-2
# [13] = Downregulation of DVL1 mRNA expression in human MIAPaCa2 cells at 40 nM after 24 hrs by RNA sequencing analysis relative to control; type: functional, MIA PaCa-2
# [14] = Downregulation of APC2 mRNA expression in human MIAPaCa2 cells at 40 nM after 24 hrs by RNA sequencing analysis relative to control; type: functional, MIA PaCa-2
# [15] = Downregulation of MAPK11 mRNA expression in human MIAPaCa2 cells at 40 nM after 24 hrs by RNA sequencing analysis relative to control; type: functional, MIA PaCa-2
# [16] = Downregulation of hTERT mRNA expression in human MIAPaCa2 cells at 40 nM after 24 hrs by RNA sequencing analysis relative to control; type: functional, MIA PaCa-2
# [17] = Toxicity in mouse xenografted with human MIAPaCa2 cells assessed as effect on cardiac clinical signs at 1 mg/kg, iv administered once per week for 28 days; type: organism-based; settings: in vivo, 672 h, time 28 day
# [18] = Toxicity in mouse xenografted with human MIAPaCa2 cells assessed as effect on neuronal clinical signs at 1 mg/kg, iv administered once per week for 28 days; type: organism-based; settings: in vivo, 672 h, time 28 day
# MIA PaCa-2 [19] = assay: Downregulation of Rap1 signaling pathway related gene expression in human MIAPaCa2 cells at 40 nM after 6 hrs by RNA sequencing analysis; type: functional, cell-based
# MIA PaCa-2 [20] = assay: Downregulation of NF-kappaB signalling pathway related gene expression in human MIAPaCa2 cells at 40 nM after 6 hrs by RNA sequencing analysis; type: functional, cell-based
# MIA PaCa-2 [21] = assay: Downregulation of cell cycle associated gene expression in human MIAPaCa2 cells at 40 nM after 24 hrs by RNA sequencing analysis; type: functional, cell-based
# MIA PaCa-2 [22] = assay: Downregulation of DNA replication associated gene expression in human MIAPaCa2 cells at 40 nM after 24 hrs by RNA sequencing analysis; type: functional, cell-based
# MIA PaCa-2 [23] = assay: Downregulation of Wnt signaling pathway related gene expression in human MIAPaCa2 cells at 40 nM after 24 hrs by RNA sequencing analysis; type: functional, cell-based
# [24] = Toxicity in mouse xenografted with human MIAPaCa2 cells assessed as drug tolerability at 1 mg/kg, iv administered twice per week for 28 days; type: organism-based; settings: in vivo, 672 h, time 28 day
# [25] = Toxicity in mouse xenografted with human MIAPaCa2 cells assessed as effect on cardiac clinical signs at 1 mg/kg, iv administered twice per week for 28 days; type: organism-based; settings: in vivo, 672 h, time 28 day
# [26] = Toxicity in mouse xenografted with human MIAPaCa2 cells assessed as effect on neuronal clinical signs at 1 mg/kg, iv administered twice per week for 28 days; type: organism-based; settings: in vivo, 672 h, time 28 day
# Mus musculus = assay: Effect on hTERT expression in mouse xenografted with human MIAPaCa2 cells at 1 mg/kg, iv administered twice per week for 28 days and measured on day 28 by Western blot analysis; type: functional, organism-based; settings: time 28.0 day
# MIA PaCa-2 [27] = assay: Potency index, ratio of 2,7-bis(3-morpholinopropyl)-4-((2-(pyrrolidin-1-yl)ethyl)amino)benzo[lmn][3,8]phenanthroline-1,3,6,8(2H,7H)-tetraone IC50 to test compound IC50 for human MIAPaCa2 cells measured after 96 hrs by SRB assay; type: functional
structure (smiles),measurement,setting,value
O=C1c2cc(-c3ccc(CN4CCCC4)cc3)c3c4c(cc(NCCN5CCCC5)c(c24)C(=O)N1CCCN1CCOCC1)C(=O)N(CCCN1CCOCC1)C3=O [QN-302],Activity,Quadruplex DNA [1],inactive
same,Activity,Quadruplex DNA [2],Active
same,GI50,BXPC-3,2.6 nM
same,GI50,PANC-1,1.4 nM
same,Activity,[3],Non-Toxic
same,GI50,MIA PaCa-2 [4],1.3 nM
same,half-life,[5],37 h
same,clearance,[6],2.2 mL/min/kg
same,Activity,MIA PaCa-2 [7],0.17 cm3
same,log2FC,[8],1.48
same,log2FC,[9],1.59
same,log2FC,[10],1.88
same,log2FC,[11],0.58
same,log2FC,[12],0.57
same,log2FC,[13],0.77
same,log2FC,[14],1.06
same,log2FC,[15],1.72
same,log2FC,[16],1.02
same,Activity,[17],Non-Toxic
same,Activity,[18],Non-Toxic
same,inhibition,MIA PaCa-2 [19],Active
same,inhibition,MIA PaCa-2 [20],Active
same,inhibition,MIA PaCa-2 [21],Active
same,inhibition,MIA PaCa-2 [22],Active
same,inhibition,MIA PaCa-2 [23],Active
same,Activity,[24],Non-Toxic
same,Activity,[25],Non-Toxic
same,Activity,[26],Non-Toxic
same,Activity,Mus musculus,inactive
same,Ratio IC50,MIA PaCa-2 [27],10
